Patent publication US10231992B2, “Antioxidant composition” (priority 2010, dated 2019)

Tests used:
human fibroblasts = experiment: MTT cytotoxicity and proliferation assay, limit concentrations of NAC and turmeric; type: cell-based
Experimental: The proliferation assay was carried out using the MTT colorimetric assay (Roche 11465007001). MTT is a yellow tetrazolium salt which forms formazan crystals in active cells. The formazan crystals are solubilized and the resulting color is quantified by means of spectrophotometry at 550 nm. […] The cells were maintained at 37° C. in an incubation stove. The following day, the treatments of NAC and Turmeric were added to the cell culture using a volume of 200 μL per well. The cell culture was left to incubate for 24, 48 and 72 hours. After each incubation time, 20 μL of MTT (a final concentration of 0.5 mg/mL) were added to each well. The plate was maintained for 4 hours in the incubation stove in order to allow the formation of formazan crystals. Subsequently, 100 μL of solubilizer was added to each well and the plate was left in the incubation stove until the following day.

[1] = tested on: reactive oxygen metabolites (ROMs) in human fibroblasts; experiment: Intracellular ROM quantification with 2',7'-dichlorofluorescein diacetate probe in oxidized fibroblasts; type: cell-based; conditions: 1 mM H2O2; for F.U. (fluorescence units) / % decrease of ROS: 1% LBG, 5 mM NAC, 5 μM Turmeric; for F.U. (fluorescence units): fluorescence at 538 nm, 20 minutes after the start of the oxidation; for % decrease of ROS: with respect to the oxidized control
Experimental: To quantify the ROM-decreasing or antioxidant capacity of LBG, NAC and turmeric, the production of the ROMs generated upon oxidizing a culture of fibroblasts with a high concentration of hydrogen peroxide was measured.
The intracellular ROMs were quantified by means of the labeling thereof with the fluorescent probe 2′,7′-dichlorofluorescein diacetate (Molecular Probes D399). This probe is capable of emitting fluorescence at 538 nm when it is oxidized with reactive oxygen metabolites. The cell oxidation was carried out with 1 mM hydrogen peroxide.
The day before the assay, the fibroblasts were seeded in a 96-well plate at a density of 11500 cells per well. All the assays were performed in triplicate.
The treatments were prepared on the day of the experiment and the hydrogen peroxide was added just before the assay.
A solution of locust bean gum of 1% in distilled water was prepared and heated above 100° C. until completing dissolution of the gum.
The solution was then centrifuged for 20 minutes at 4000 rpm to remove the impurities from the mixture. The solution of the locust bean gum was lyophilized. The lyophilisate was dissolved in cell growth medium (DMEM+10% FBS) at a concentration of 1%.
Before adding the treatments and the hydrogen peroxide, the cells were labeled with the fluorescent probe at a concentration of 50 μM for 30 minutes in darkness.
The NAC and Turmeric treatments and the hydrogen peroxide were prepared just before starting the assay. To prepare the turmeric stock, it is necessary to know the purity of the Turmeric batch available and readjust the calculation to add the necessary concentration.
After labeling the cells, the antioxidant treatments and the hydrogen peroxide were added.
The fluorescence emitted at 538 nm by the probe was collected 20 minutes after the start of the oxidation.
However, in this case the decrease in intracellular ROM levels was taken as a reference with respect to the oxidized control.

SMILES	IC50 (concentration causing a 50% cell decrease with respect to the control) (human fibroblasts; NAC studied from 0.5 mM to 20 mM, 72 hours)	proliferative rate in the fibroblasts (human fibroblasts; concentrations of 1 and 5 mM)	cell proliferation with respect to the control (human fibroblasts; concentrations of 10 and 20 mM)	maximum limit of concentration (human fibroblasts; toxicity limit from MTT assay) [mM]	intracellular ROM levels [1]	F.U. (fluorescence units) [1]	% decrease of ROS [1] [%]	IC50 (human fibroblasts; Homo sapiens, Fibroblast, 72 h, read-out: IC50 (concentration causing a 50% cell decrease with respect to the control)) [µM]	toxicity (human fibroblasts; concentration of 10 μM)	toxicity (human fibroblasts; concentrations of 1 and 5 μM)	toxicity (human fibroblasts; concentrations of 20 and 50 μM)	maximum limit of use in the mixture (human fibroblasts; toxicity limit from MTT assay) [µM]
CC(=O)N[C@@H](CS)C(=O)O [NAC, N-acetyl cysteine, reference compound]	none of the concentrations studied reached IC50	improvement of the proliferative rate	progressively reduced cell proliferation	10	significant decrease of the intracellular ROM levels	1.82	85					
COc1cc(/C=C/C(=O)/C=C(O)/C=C/c2ccc(O)c(OC)c2)ccc1O [Turmeric, curcumin]					significant decrease of the intracellular ROM levels	2.31	81	7.5	exceeds the limit at 72 hours	no toxic effects were observed	toxicity from the first 24 hours, exceeding the IC50 limit	7.5
